According to patent US20200060276A1, “THIAZOLE COMPOUND AND HERBICIDE” (OAT Agrio Co., Ltd., priority 2017, published 2020):

Assays:
Format in all cases: in vivo
[1] = system: Echinochloa crus-galli (L.) P. Beauv. var. formosensis Ohwi; assay: Test for Herbicidal Effect in Flooding Treatment (#1), ECHDG; conditions: flooding treatment at seeding, dose 2 kg/ha, visual observation on day 21
Outline: (§1)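 Sieved soil in cups was flooded and left 24 h before weed seeds were sown. Compounds in acetone, diluted with Tween 80-containing water, were dropped over the whole surface at 2 kg/ha. After 21 days in a glasshouse, growth inhibition was scored visually from 0 (<10%) to 5 (≥90% or complete withering).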

Cyperus microiria = assay: Test for Herbicidal Effect in Flooding Treatment (#1), CYMIC; conditions: flooding treatment at seeding, dose 2 kg/ha, visual observation on day 21
Outline: as §1

[2] = system: Echinochloa crus-galli (L.) P. Beauv. var. formosensis Ohwi; assay: Test for Herbicidal Effect in Flooding Treatment (#2), ECHDG at 2-2.5 leaf stage; conditions: for ECHDG (2-2.5L) #2 herbicidal effect (growth inhibition grade): flooding treatment at 2-2.5 leaf stage, dose 0.2 kg/ha, visual observation on day 21
Outline: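 Flooded muddy soil was seeded with the weed, and at 2–2.5 leaf stage compound in acetone/Tween 80 water was dropped on the water surface at 0.2 kg/ha. Plants were kept in a glasshouse and scored visually on day 21 from 0 (<10% growth inhibition) to 5 (≥90% or complete withering).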

Scirpus juncoides = assay: Test for Herbicidal Effect in Flooding Treatment (#1), SCIJU; conditions: flooding treatment at seeding, dose 2 kg/ha, visual observation on day 21
Outline: as §1

Monochoria vaginalis = assay: Test for Herbicidal Effect in Flooding Treatment (#1), MONVA; conditions: flooding treatment at seeding, dose 2 kg/ha, visual observation on day 21
Outline: as §1

Compound	ECHDG #1 herbicidal effect (growth inhibition grade) [1]	CYMIC #1 herbicidal effect (growth inhibition grade) (Cyperus microiria)	inhibition at 200 g/ha ([2]; Echinochloa crus-galli, 504 h, flooding treatment (#2), ECHDG at 2-2.5 leaf stage, dose of 0.2 kg/ha, day 21, visual observation, read-out: growth inhibition effect) [%]	ECHDG (2-2.5L) #2 herbicidal effect (growth inhibition grade) [2]	SCIJU #1 herbicidal effect (growth inhibition grade) (Scirpus juncoides)	MONVA #1 herbicidal effect (growth inhibition grade) (Monochoria vaginalis)
CCOc1cccc(F)c1CS(=O)(=O)c1ncc(Cl)s1 [Compound 1C-19]	5 (Growth inhibition effect is equal to or greater than 90%, or complete withering is achieved)	5 (Growth inhibition effect is equal to or greater than 90%, or complete withering is achieved)	≥ 90	5 (Growth inhibition effect is equal to or greater than 90%, or complete withering is achieved)	5 (Growth inhibition effect is equal to or greater than 90%, or complete withering is achieved)	5 (Growth inhibition effect is equal to or greater than 90%, or complete withering is achieved)
O=S(=O)(Cc1cc(Br)ccc1OC(F)(F)F)c1ncc(Cl)s1 [Compound 1C-47]	5 (Growth inhibition effect is equal to or greater than 90%, or complete withering is achieved)	5 (Growth inhibition effect is equal to or greater than 90%, or complete withering is achieved)		4 (Growth inhibition effect is equal to or greater than 70%, and less than 90%)	5 (Growth inhibition effect is equal to or greater than 90%, or complete withering is achieved)	5 (Growth inhibition effect is equal to or greater than 90%, or complete withering is achieved)
COc1cccc(F)c1CS(=O)(=O)c1ncc(Cl)s1 [Compound 1C-5]	5 (Growth inhibition effect is equal to or greater than 90%, or complete withering is achieved)	5 (Growth inhibition effect is equal to or greater than 90%, or complete withering is achieved)		5 (Growth inhibition effect is equal to or greater than 90%, or complete withering is achieved)	5 (Growth inhibition effect is equal to or greater than 90%, or complete withering is achieved)	5 (Growth inhibition effect is equal to or greater than 90%, or complete withering is achieved)
CCOc1cc(CS(=O)(=O)c2ncc(Cl)s2)ccc1Cl [Compound 1C-77]	5 (Growth inhibition effect is equal to or greater than 90%, or complete withering is achieved)	5 (Growth inhibition effect is equal to or greater than 90%, or complete withering is achieved)		3 (Growth inhibition effect equal to or greater than 50%, and less than 70%)	5 (Growth inhibition effect is equal to or greater than 90%, or complete withering is achieved)	5 (Growth inhibition effect is equal to or greater than 90%, or complete withering is achieved)
COc1ccc(F)c(CS(=O)(=O)c2ncc(Cl)s2)c1 [Compound 1C-69]	5 (Growth inhibition effect is equal to or greater than 90%, or complete withering is achieved)	5 (Growth inhibition effect is equal to or greater than 90%, or complete withering is achieved)		4 (Growth inhibition effect is equal to or greater than 70%, and less than 90%)	5 (Growth inhibition effect is equal to or greater than 90%, or complete withering is achieved)	5 (Growth inhibition effect is equal to or greater than 90%, or complete withering is achieved)
CCOc1cc(C)c(Cl)c(C)c1CS(=O)(=O)c1ncc(Cl)s1 [Compound 1C-35]	5 (Growth inhibition effect is equal to or greater than 90%, or complete withering is achieved)	5 (Growth inhibition effect is equal to or greater than 90%, or complete withering is achieved)		5 (Growth inhibition effect is equal to or greater than 90%, or complete withering is achieved)	5 (Growth inhibition effect is equal to or greater than 90%, or complete withering is achieved)	5 (Growth inhibition effect is equal to or greater than 90%, or complete withering is achieved)
CCOc1cc(C)c(Cl)cc1CS(=O)(=O)c1ncc(Cl)s1 [Compound 1C-30]	5 (Growth inhibition effect is equal to or greater than 90%, or complete withering is achieved)	5 (Growth inhibition effect is equal to or greater than 90%, or complete withering is achieved)		5 (Growth inhibition effect is equal to or greater than 90%, or complete withering is achieved)	5 (Growth inhibition effect is equal to or greater than 90%, or complete withering is achieved)	5 (Growth inhibition effect is equal to or greater than 90%, or complete withering is achieved)
COc1ccc(CS(=O)(=O)c2ncc(Cl)s2)c(F)c1 [Compound 1C-88]	5 (Growth inhibition effect is equal to or greater than 90%, or complete withering is achieved)	5 (Growth inhibition effect is equal to or greater than 90%, or complete withering is achieved)		4 (Growth inhibition effect is equal to or greater than 70%, and less than 90%)	5 (Growth inhibition effect is equal to or greater than 90%, or complete withering is achieved)	5 (Growth inhibition effect is equal to or greater than 90%, or complete withering is achieved)
CCOc1ccc(CS(=O)(=O)c2ncc(Cl)s2)c(C(F)(F)F)c1 [Compound 1C-94]	5 (Growth inhibition effect is equal to or greater than 90%, or complete withering is achieved)	5 (Growth inhibition effect is equal to or greater than 90%, or complete withering is achieved)		5 (Growth inhibition effect is equal to or greater than 90%, or complete withering is achieved)	5 (Growth inhibition effect is equal to or greater than 90%, or complete withering is achieved)	5 (Growth inhibition effect is equal to or greater than 90%, or complete withering is achieved)
CCOc1cc(CS(=O)(=O)c2ncc(Cl)s2)cc(F)c1F [Compound 1C-83]	5 (Growth inhibition effect is equal to or greater than 90%, or complete withering is achieved)	5 (Growth inhibition effect is equal to or greater than 90%, or complete withering is achieved)		4 (Growth inhibition effect is equal to or greater than 70%, and less than 90%)	5 (Growth inhibition effect is equal to or greater than 90%, or complete withering is achieved)	5 (Growth inhibition effect is equal to or greater than 90%, or complete withering is achieved)
CCOc1c(F)cc(CS(=O)(=O)c2ncc(Cl)s2)cc1F [Compound 1C-104]	5 (Growth inhibition effect is equal to or greater than 90%, or complete withering is achieved)	5 (Growth inhibition effect is equal to or greater than 90%, or complete withering is achieved)		1 (Growth inhibition effect is equal to or greater than 10%, and less than 30%)	5 (Growth inhibition effect is equal to or greater than 90%, or complete withering is achieved)	5 (Growth inhibition effect is equal to or greater than 90%, or complete withering is achieved)
O=S(=O)(Cc1cc(Cl)ccc1OC(F)F)c1ncc(Cl)s1 [Compound 1C-39]	5 (Growth inhibition effect is equal to or greater than 90%, or complete withering is achieved)	5 (Growth inhibition effect is equal to or greater than 90%, or complete withering is achieved)		5 (Growth inhibition effect is equal to or greater than 90%, or complete withering is achieved)	5 (Growth inhibition effect is equal to or greater than 90%, or complete withering is achieved)	5 (Growth inhibition effect is equal to or greater than 90%, or complete withering is achieved)
CCOc1c(F)ccc(CS(=O)(=O)c2ncc(Cl)s2)c1F [Compound 1C-81]	5 (Growth inhibition effect is equal to or greater than 90%, or complete withering is achieved)	5 (Growth inhibition effect is equal to or greater than 90%, or complete withering is achieved)		5 (Growth inhibition effect is equal to or greater than 90%, or complete withering is achieved)	5 (Growth inhibition effect is equal to or greater than 90%, or complete withering is achieved)	5 (Growth inhibition effect is equal to or greater than 90%, or complete withering is achieved)
